Molecules are shown by their SMILES. pIC50: −log10 of the molar value.

This assay has as its system LPS induced TNF release. In words: THP1 cell assay (LPS induced TNF release). Type of assay: cell-based. The note with it: Homo sapiens, THP-1; THP1 cells, LPS induced TNF-α secretion, 3 h at 37° C. On the procedure:
Lipopolysaccharide-Activated THP1 Cell TNF Production Assay
THP1 cells are resuspended in fresh THP1 media (RPMI 1640, 10% heat-inactivated FBS, 1XPGS, 1XNEAA, plus 30 μM OME) at a concentration of 1E6/mL. One hundred microliters of cells per well are plated in a polystyrene 96-well tissue culture. One microgram per mL of bacterial LPS is prepared in THP1 media and is transferred to the wells. Test compounds are dissolved in 100% DMSO and are serially diluted 3-fold in a polypropylene 96-well microtiter plate (drug plate). HI control and LO control wells contain only DMSO. One microliter of test compound from the drug plate followed by 10 μL of LPS are transferred to the cell plate. The treated cells are induced to synthesize and secrete TNF-α at 37° C. for 3 h. Forty microliters of conditioned media are transferred to a 96-well polypropylene plate containing 110 μL of ECL buffer (50 mM Tris-HCl pH 8.0, 100 mM NaCl, 0.05% Tween 20, 0.05% NaN3 and 1% FBS) supplemented with 0.44 nM MAB610 monoclonal Ab (R&D Systems), 0.34 nM ruthenylated AF210NA polyclonal Ab (R&D Systems) and 44 μg/mL sheep anti-mouse M280 Dynabeads (Dynal). After a 2 h incubation at RT with shaking, the reaction is read on the ECL M8 Instrument (IGEN Inc.). A low voltage is applied to the ruthenylated TNF-α immune complexes, which in the presence of TPA (the active component in Origlo), results in a cyclical redox reaction generating light at […]. The amount of secreted TNF-α in the presence of compound compared with that in the presence of DMSO vehicle alone (HI control) is calculated using the formula: % control (POC)=(cpd−average LO)/(average HI−average LO)*100. Data (consisting of POC and inhibitor concentration in μM) is fitted to a 4-parameter equation (y=A+((B−A)/(I+((x/C)ˆD))), where A is the minimum y (POC) value, B is the maximum y (POC), C is the x (cpd concentration) at the point of inflection and D is the slope factor) using a Levenburg-Marquardt non-linear regression algorithm.
The molecule `CNCCC(=O)N1CCC(Nc2nccc(N3CCCc4cnc(-c5ccccc5)cc43)n2)CC1` [Example 15, 3-(Methylamino)-1-(4(4-(7-phenyl-3,4-dihydro-1,6-naphthyridin-1(2H)-yl)-pyrimidin-2-ylamino)piperdin-1-yl)propan-1-one] gave a pIC50 of at least 4.70.
`C[C@@H](Cc1cccc([C@@H](C)N)c1)Nc1nccc(N2CCOc3cnc(-c4ccccc4)nc32)n1` [Example 100, N-((S)-1-(3-((R)-1-Aminoethyl)phenyl)propan-2-yl)-4-(2-phenyl-6,7-dihydropyrimido[5,4-b][1,4]oxazin-8-yl)pyrimidin-2-amine] had a pIC50 of at least 4.70.
As to `NC(=O)[C@@H](Cc1ccccc1)Nc1nccc(N2CCCc3cnc(-c4ccccc4)cc32)n1` [Example 33, (R)-3-Phenyl-2-(4-(7-phenyl-3,4-dihydro-1,6-naphthyridin-1(2H)-yl)pyrimidin-2-ylamino)propanamide], the pIC50 was at least 4.70.
`c1ccc(-c2cc3c(cn2)CCCN3c2ccnc(NC3CCNCC3)n2)cc1` [Example 8, 4-(7-Phenyl-3,4-dihydro-1,6-naphthyridin-1(2H)-yl)-N-(piperidin-4-yl)pyrimidin-2-amine]: the pIC50 was at least 4.70.
For `CCOC(=O)c1cc2c(nc1-c1ccccc1)N(c1ccnc(N[C@H]3CC[C@H](N)CC3)n1)CCC2` [Example 75, Ethyl 8-(2-((1R,4R)-4-aminocyclohexylamino)pyrimidin-4-yl)-2-phenyl-5,6,7,8-tetrahydro-1,8-naphthyridine-3-carboxylate] the value was at least 4.70.
Consider `Cc1cc(N2CCCc3ccc(-c4ccccc4)nc32)nc(F)n1` [Example 59, 1-(2-Fluoro-6-methylpyrimidin-4-yl)-7-phenyl-1,2,3,4-tetrahydro-1,8-naphthyridine], for which the pIC50 is at least 4.70.
`CC(C)(C)OC(=O)N1CCC(Nc2nccc(N3CCCc4cnc(-c5ccccc5)cc43)n2)CC1` [Example 7, tert-Butyl 4-(4-(7-phenyl-3,4-dihydro-1,6-naphthyridin-1(2H)-yl)pyrimidin-2-ylamino)piperidine-1-carboxylate]: the negative-log IC50 (pIC50) was at least 4.70.
For `NC1CCC(Nc2nccc(N3CCCc4cnc(-c5ccccc5)cc43)n2)CC1` [Example 34, (1R,4R)-N^1-(4-(7-Phenyl-3,4-dihydro-1,6-naphthyridin-1(2H)-yl)pyrimidin-2-yl)cyclohexane-1,4-diamine] the value was at least 4.70.
For `CC(=O)NC1CCC(Nc2nccc(N3CCCc4cnc(-c5ccccc5)cc43)n2)CC1` [Example 35, N-((1R,4R)-4-(4-(7-Phenyl-3,4-dihydro-1,6-naphthyridin-1(2H)-yl)pyrimidin-2-ylamino)cyclohexyl)acetamide] the value was at least 4.70; for `CC(=O)c1cccc(C[C@H](C)Nc2nccc(N3CCCc4cnc(-c5ccccc5)cc43)n2)c1` [Example 12, (S)-1-(3-(2-(4-(7-Phenyl-3,4-dihydro-1,6-naphthyridin-1(2H)-yl)pyrimidin-2-yl-amino)propyl)phenyl)ethanone], at least 4.70.
The result for `C[C@H](N)c1cccc(C[C@H](C)Nc2nccc(N3CCCc4cnc(-c5ccccc5)cc43)n2)c1` [Example 109, N-((S)-1-(3-((S)-1-Aminoethyl)phenyl)propan-2-yl)-4-(7-phenyl-3,4-dihydro-1,6-naphthyridin-1(2H)-yl)pyrimidin-2-amine] reads at least 4.70; that for `OCc1cc(-c2ccccc2)nc2c1CCCN2c1ccnc(NCCc2ccccc2)n1` [Example 86, (8-(2-(Phenethylamino)pyrimidin-4-yl)-2-phenyl-5,6,7,8-tetrahydro-1,8-naphthyridin-4-yl)methanol], at least 4.70.
`Fc1cnc(NC2CCNCC2)nc1N1CCCc2cnc(-c3ccccc3)cc21` [Example 25, 5-Fluoro-4-(7-phenyl-3,4-dihydro-1,6-naphthyridin-1(2H)-yl)-N-(piperidin-4-yl)pyrimidin-2-amine]: the negative-log IC50 (pIC50) was at least 4.70.
The result for `FC(F)(F)c1cc(N2CCCc3ccc(-c4ccccc4)nc32)nc(NCCc2ccccc2)n1` [Example 56, N-Phenethyl-4-(7-phenyl-3,4-dihydro-1,8-naphthyridin-1(2H)-yl)-6-(trifluoromethyl)pyrimidin-2-amine] reads at least 4.70; that for `COC(=O)[C@@H](Cc1ccccc1)Nc1nccc(N2CCCc3cnc(-c4ccccc4)cc32)n1` [Example 17, (R)-Methyl-3-phenyl-2-(4-(7-phenyl-3,4-dihydro-1,6-naphthyridin-1(2H)-yl)-pyrimidin-2-ylamino)propanoate], at least 4.70.
For the molecule `CC(Cc1cccc(CN)c1)Nc1nccc(N2CCCc3cnc(-c4ccccc4)cc32)n1` (centres unmarked) [Example 5, N-(1-(3-(Aminomethyl)phenyl)propan-2-yl)-4-(7-phenyl-3,4-dihydro-1,6-naphthyridin-1(2H)-yl)pyrimidin-2-amine], the pIC50 is at least 4.70.
`CC(Cc1cccc(CN)c1)Nc1nccc(N2CCCc3cc(CO)c(-c4ccccc4)nc32)n1` (centres unmarked) [Example 80, (8-(2-(1-(3-(Aminomethyl)phenyl)propan-2-ylamino)pyrimidin-4-yl)-2-phenyl-5,6,7,8-tetrahydro-1,8-naphthyridin-3-yl)methanol] showed a negative-log IC50 (pIC50) of at least 4.70.
The molecule `O=C(C[C@@H](Cc1ccccc1)Nc1nccc(N2CCCc3cnc(-c4ccccc4)cc32)n1)N1CCNCC1` [Example 22, (R)-4-Phenyl-3-(4-(7-phenyl-3,4-dihydro-1,6-naphthyridin-1(2H)-yl)pyrimidin-2-ylamino)-1-(piperazin-1yl)butan-1-one] showed a pIC50 of at least 4.70.
For the molecule `C[C@@H](Cc1cccc(CN)c1)Nc1nccc(N2CCCc3cnc(-c4ccccc4)cc32)n1` [Example 38], the pIC50 is at least 4.70.
The result for `CN(C)Cc1cc2c(nc1-c1ccccc1)N(c1ccnc(NCCc3ccccc3)n1)CCC2` [Example 71, 4-(6-((Dimethylamino)methyl)-7-phenyl-3,4-dihydro-1,8-naphthyridin-1(2H)-yl)-N-phenethylpyrimidin-2-amine] reads at least 4.70; that for `CC(Cc1cccc(CN)c1)Nc1nccc(N2CCCc3ccc(-c4ccccc4)nc32)n1` (centres unmarked) [Example 49, N-(1-(3-(Aminomethyl)phenyl)propan-2-yl)-4-(7-phenyl-3,4-dihydro-1,8-naphthyridin-1(2H)-yl)pyrimidin-2-amine], at least 4.70; that for `c1ccc(CCNc2nccc(N3CCCc4ccc(-c5ccccc5)nc43)n2)cc1` [Example 47, N-Phenethyl-4-(7-phenyl-3,4-dihydro-1,8-naphthyridin-1(2H)-yl)pyrimidin-2-amine], at least 4.70.
With `CC(=O)NCC(C)(C)Nc1nccc(N2CCCc3cnc(-c4ccccc4)cc32)n1` [Example 42, N-(2-Methyl-2-(4-(7-phenyl-3,4-dihydro-1,6-naphthyridin-1(2H)-yl)pyrimidin-2-ylamino)propyl)acetamide], the negative-log IC50 (pIC50) was at least 4.70.
The molecule `c1ccc(-c2cnc3c(c2)N(c2ccnc(NC4CCNCC4)n2)CCC3)cc1` [Example 31, 4-(7-Phenyl-3,4-dihydro-1,5-naphthyridin-1(2H)-yl)-N-(piperidin-4-yl)pyrimidin-2-amine] showed a negative-log IC50 (pIC50) of at least 4.70.
For `CC(C)(C)CNc1nccc(N2CCCc3ccc(-c4ccccc4)nc32)n1` [Example 52, N-Neopentyl-4-(7-phenyl-3,4-dihydro-1,8-naphthyridin-1(2H)-yl)pyrimidin-2-amine] the value was at least 4.70; for `CC(=O)NC1CCC(Nc2nccc(N3CCCc4ccc(-c5ccccc5)nc43)n2)CC1` [Example 90, N-((1R,4R)-4-(4-(7-Phenyl-3,4-dihydro-1,8-naphthyridin-1(2H)-yl)pyrimidin-2-ylamino)cyclohexyl)acetamide], at least 4.70.
As for `CCNCCC(=O)N1CCC(Nc2nccc(N3CCCc4cnc(-c5ccccc5)cc43)n2)CC1` [Example 16, 3-(Ethylamino)-1-(4(4-(7-phenyl-3,4-dihydro-1,6-naphthyridin-1(2H)-yl)pyrimidin-2-ylamino)piperdin-1-yl)propan-1-one], the pIC50 is at least 4.70.
Consider `O=C(C[C@@H](Cc1ccccc1)Nc1nccc(N2CCCc3cnc(-c4ccccc4)cc32)n1)NC1CC1` [Example 21, (R)-N-Cyclopropyl-4-phenyl-3-(4-(7-phenyl-3,4-dihydro-1,6-naphthyridin-1(2H)-yl)pyrimidin-2-ylamino)butanamide], for which the negative-log IC50 (pIC50) is at least 4.70.
For the molecule `Cc1cc(N2CCCc3ccc(-c4ccccc4)nc32)nc(N[C@@H](C)Cc2cccc([C@@H](C)N)c2)n1` [Example 62, N-((S)-1-(3-((R)-1-Aminoethyl)phenyl)propan-2-yl)-4-methyl-6-(7-phenyl-3,4-dihydro-1,8-naphthyridin-1(2H)-yl)pyrimidin-2-amine], the pIC50 was at least 4.70.

The values above are taken from patent US20060161001A1, “Substituted heterocyclic compounds and methods of use” (Amgen Inc., priority 2004, published 2006).
